In publication PMC12649483, “Novel Chalcone Derivatives as Anti-Leishmania infantum Agents with Potential Synergistic Activity and In Silico Insights” (Antibiotics, 2025):
“Also recorded” adds a separate entry of the source.

Experiments:
[1] = tested on: human PBMCs; experiment: Cytotoxicity (MTT) in peripheral blood mononuclear cells; type: cell-based
Protocol: (§1) For the PBMCs assay, blood samples from three healthy volunteers were processed using Ficoll density gradient centrifugation (980× g) for 20 min at 25 °C. The PBMCs layer was collected, washed with sterile 1× PBS (300× g, 10 min, 4 °C), and resuspended in RPMI medium (Sigma-Aldrich) supplemented with 10% FBS and 1% antibiotic. Adjusted PBMCs were plated in 96-well plates and incubated with serial dilutions of the compounds (1000 to 7.8 µM) and AmB (100 to 0.78 µM) for 24 h (37 °C, 5% CO2). MTT was then added for 4 h, followed by centrifugation (300× g, 10 min) at 4 °C, supernatant removal, and DMSO addition for spectrophotometric reading at 540 nm.

[2] = as above; type: cell-based, human; conditions: human, peripheral blood mononuclear cells (PBMCs), 24 h; for CC50 at 24 h: PBMCs, MTT; for viability at 24 h, 250 µM: at 250 μM; for viability at 24 h, 500 µM: at 500 μM
Protocol: as §1

[3] = tested on: L. infantum axenic amastigotes; experiment: Synergistic activity of 4b with AmB (Chou-Talalay) against axenic amastigotes; type: cell-based, Leishmania infantum; conditions: of each drug within the 1:5 AmB:4b combination
Protocol: The nature of the drug interaction (synergistic, additive, or antagonistic) was evaluated using the Chou–Talalay method implemented in CompuSyn software (ComboSyn Incorporated, version 1.0.1, 2006–2023). This approach calculates the Combination Index (CI) based on dose–response data fitted to the median-effect equation, with parameters including Dm (median-effect dose), m (slope of the dose–effect curve), and r (linear correlation coefficient). To characterize the interaction at different effect levels, CI values were determined for the following effective doses: ED50, ED75, and ED90, corresponding to 50%, 75%, and 90% inhibition of cell viability, respectively. Interactions were interpreted as synergistic when CI < 1, additive when CI = 1, and antagonistic when CI > 1. Additionally, the dose reduction index (DRI) was calculated to estimate the amount of dose reduction that could be achieved for each drug in combination while maintaining the same level of efficacy; […]

[4] = tested on: L. infantum promastigotes; experiment: In vitro leishmanicidal activity (MTT) in promastigote forms; type: cell-based, Leishmania infantum; conditions: for IC50: 72 h treatment, MTT
Protocol: (§2) Promastigote forms of L. infantum [IOC/L0579 (MHOM/BR/1974/PP75)] were cultured in Schneider’s medium (pH 7.0), supplemented with 20% fetal bovine serum (FBS), 1% human male urine, and 1% antibiotic solution (penicillin 200 U/mL and streptomycin 0.1 mg/mL), and maintained at 26 ± 1 °C (B.O.D SL 200—SOLAB, Piracicaba, SP, BR). The generation of extracellular axenic amastigote forms of L. infantum was based on protocols previously described by Debrabant et al. (2004), with modifications that included the use of Schneider’s medium adjusted to pH 5.5 and incubation at 37 °C (CO2 Series 3517-2, Cornelius, OR, USA).
The antileishmanial activity of compounds against metacyclic promastigote populations was assessed using the MTT (ACROS, Livingston, NJ, USA) assay for cell viability analysis. During testing, L. infantum (IOC/L0579) cultures were maintained in vitro in supplemented Schneider’s (Sigma-Aldrich, St. Louis, MO, USA) medium (pH 7.0) at 26 ± 1 °C in a biological oxygen demand (BOD) incubator.
(§3) In 96-well plates, initial screening was performed with serial dilutions (400 to 3.12 μM) of compounds 3a–c and 4a–c in duplicate. […] AmB was used as a positive control due to its established leishmanicidal activity, tested at concentrations ranging from 10 to 0.078 μM. Following 72 h-treatment of promastigotes and 24 h-treatment of amastigotes (accounting for the stationary phase culture characteristics), MTT was added for 4 h, followed by overnight incubation with sodium dodecyl sulfate (SDS) for spectrophotometric (Biotek model ELx800, Winooski, VT, USA) reading at 540 nm.

[5] = tested on: human erythrocytes; experiment: Hemolytic activity in human erythrocytes; type: cell-based; conditions: for hemolytic activity (in words): tested concentrations 100–0.78 µM
Protocol: The hemolytic activity of the compounds 4a–b was evaluated using an adaptation of the method described by Van de Ven (2012). Blood samples were adjusted to a 5% erythrocyte concentration, taking into account the hematocrit differences between males (40–50% ≈ 45%) and females (35–45% ≈ 40%). Compounds were added to 96-well plates at serial dilutions (100 to 0.78 µM), while AmB was tested at concentrations ranging from 400 to 3.12 µM as a reference. After 1 h of incubation at 37 °C in a 5% CO2 incubator, 100 µL of phosphate-buffered saline (PBS) was added to each well. Plates were centrifuged (112× g, 10 min, 25 °C), and supernatants were transferred to a mirrored 96-well plate. Hemoglobin release, reflecting erythrocyte lysis, was quantified by measuring absorbance at 540 nm. The assay was performed in three independent experiments, with results expressed as mean hemolytic concentration (HC50). Ultrapure water (Direct-Q UV, Guyancourt, France) served as the positive control (100% hemolysis).

[6] = tested on: L. infantum axenic amastigotes; experiment: In vitro leishmanicidal activity (MTT) in axenic amastigote forms; type: cell-based, Leishmania infantum; conditions: for IC50: axenic amastigotes, 24 h treatment, MTT
Protocol: as §2, §3

[7] = at the highest concentration, 72 h
[8] = at the lowest doses / lower concentrations, 72 h

Row | SMILES | CC50 at 24 h [2] [µM] | dose reduction index (DRI) at IC50 [3] | IC50 ([4]; Leishmania infantum) [µM] | IC50 ([6]; Leishmania infantum) [µM] | viability at 24 h, 250 µM ([2]; read-out: PBMC viability) [%] | viability at 24 h, 500 µM ([2]; read-out: PBMC viability) [%] | promastigote viability [4, 7] [%] | promastigote viability [4, 8] [%] | hemolytic activity (in words) [5] | other results
1 | C[C@@H]1[C@H](O)[C@@H](C)/C=C/C=C/C=C/C=C/C=C/C=C/C=C/[C@H](O[C@@H]2O[C@H](C)[C@@H](O)[C@H](N)[C@@H]2O)C[C@@H]2O[C@](O)(C[C@@H](O)C[C@@H](O)[C@H](O)CC[C@@H](O)C[C@@H](O)CC(=O)O[C@H]1C)C[C@H](O)[C@H]2C(=O)O [AmB, Amphotericin B, reference compound] | 29.9 | 2.87 | 0.87 | 0.89 | – | – | – | – | – | CC50 ([1]; PBMCs, 24 h, MTT): 29.9 µM; viability at 24 h, 25 µM ([2]; at 25 μM, read-out: PBMC viability): 61.9%; viability at 24 h, 50 µM ([2]; at 50 μM, read-out: PBMC viability): 40.8%; viability at 24 h, 100 µM ([2]; at 100 μM, read-out: PBMC viability): 30.4%; 50% hemolytic concentration (HC50) ([5]; 5% erythrocytes, 1 h, 37 °C): 193.4 µM
2 | Cc1ccc(C(=O)/C=C/c2ccc(OCC(=O)NC3CCCCC3)cc2)cc1 [Compound 4a, (E)-N-Cyclohexyl-2-(4-(3-oxo-3-p-tolylprop-1-enyl)phenoxy)acetamide] | 157 | – | 12.9 | 19.7 | 33 | 33.4 | 20.77 | 100 | no hemolytic activity | viability at 24 h, 125 µM ([2]; at 125 μM, read-out: PBMC viability): 61.2%; viability at 12.5 µM ([6]; Leishmania infantum, at 12.5 µM, 24 h): 80.2%; viability at 25 µM ([6]; Leishmania infantum, at 25 µM, 24 h): 30.8%; viability at 50 µM ([6]; Leishmania infantum, at 50 µM, 24 h): 23.5%
3 | O=C(COc1ccc(/C=C/C(=O)c2ccc(Br)cc2)cc1)NC1CCCCC1 [Compound 4c, (E)-2-(4-(3-(4-Bromophenyl)-3-oxoprop-1-enyl)phenoxy)-N-cyclohexylacetamide] | – | – | 45.8 | – | – | – | 21.93 | 100 | – | activity against amastigotes (in words) ([6]; 24 h): no detectable activity; also recorded: no inhibitory effect
4 | COc1ccc(C(=O)/C=C/c2ccc(OCC(=O)NC3CCCCC3)cc2)cc1 [Compound 4b, (E)-N-Cyclohexyl-2-(4-(3-(4-methoxyphenyl)-3-oxoprop-1-enyl)phenoxy)acetamide] | 505 | 1.28 | 7.02 | 3.4 | 65.1 | 55.2 | – | – | no hemolytic activity | PBMC cytotoxicity versus negative controls (in words) ([1]; 25–100 μM): negligible cytotoxicity; viability at 24 h, 1000 µM ([2]; at 1000 μM, read-out: PBMC viability): 31.8%; viability at 3.12 µM ([4]; Leishmania infantum, at 3.12 µM, 72 h): 79.3%; viability at 6.25 µM ([4]; Leishmania infantum, at 6.25 µM, 72 h): 34.2%; viability at 12.5 µM ([4]; Leishmania infantum, at 12.5 µM, 72 h): 24.3%; viability at 1.56 µM ([6]; Leishmania infantum, at 1.56 µM, 24 h): 85.5%; viability at 3.12 µM ([6]; Leishmania infantum, at 3.12 µM, 24 h): 60.8%; viability at 6.25 µM ([6]; Leishmania infantum, at 6.25 µM, 24 h): 9.12%
